This note sets out measurements from article PMC6213047, “Design of Antibacterial Agents: Alkyl Dihydroxybenzoates against Xanthomonas citri subsp. citri” (International Journal of Molecular Sciences, 2018).

Where two headings read alike, the source gives them in different places.

Data set [1] in a line: Partition coefficient log Po/w by HPLC (OECD 117). The format is physicochemical. Particulars: HPLC method, OECD 117, methanol:water 3:1. The method, then: The analyses were performed with the use of an isocratic flow in methanol: water (3:1) at 1.0 mL min^−1. We injected 20.0 μL and analyses were performed at 254 nm. We used as reference compounds thiourea, phenol, acetophenone, benzoic acid, benzene, toluene, biphenyl, fluoranthene and triphenylamine in order to construct the curve log K × log Po/w. The lipophilicity of alkyl dihydroxybenzoates was determined from their retention times and interpolation in linearity curve log K × log Po/w. We performed the analyses in duplicate.

In data set [2] the test system is X. citri subsp. citri strain 306 (IBSBF 1594). Briefly: MBC, REMA plates replicated to Petri dishes. The format is cell-based, Xanthomonas citri subsp. citri. Particulars: Xanthomonas citri; Petri dishes from REMA plates, 29 °C, 24 to 48 h; read-out: MBC. The method, then:
The minimal bactericidal concentration (MBC) was determined by observing the bacterial growth in Petri dishes transferred from the REMA plates.
(§1) The antibacterial activity of alkyl dihydroxybenzoates and the determination of minimum inhibition concentration (MIC) were performed by the fluorimetric method Resazurin Microtiter Assay (REMA) with some modifications. An overnight culture of X. citri subsp. citri strain 306 (IBSBF 1594) was grown in 20 mL in Nitrogen Yeast Glycerol (NYG) at 29 °C in constant agitation of 180–200 rpm. After 12 h, the Xcc inoculum was dispersed in NYG medium and distributed into a 96 well microtiter plate to a final volume of 100 μL per well (10^5 CFU per well). Stock solutions of tested compounds at 10 mg mL^−1 were prepared in dimethyl sulfoxide (DMSO) and dispersed in NYG medium to obtain 1% DMSO and the final compound concentration range of 0.78–100 μg mL^−1. The negative control was constituted of 100 μL culture medium. In addition, the copper oxychloride was tested as a comparison to alkyl dihydroxybenzoates and kanamycin (20 μg mL^−1), which was used as a control antibiotic. The plate was subsequently incubated at 29 °C for 12 h, and 15 μg mL^−1 freshly prepared resazurin solution in water was added to each well, and the plate was incubated for 2 h. The fluorescence was determined on a Synergy H1 (BioTek, Winooski, VT, USA) microplate reader using the excitation and emission filters at wavelengths of 530 and 590 nm respectively. After the REMA assay, the minimum bactericidal concentration (CBM) assay was performed using a 96-pin stainless steel plate replicator, accurately transferring the wells from the REMA plate to Petri dishes Petri dishes were incubated in oven B.O.D. at 29 °C for 24 to 48 h. The experiments were performed in triplicate.

Data set [3] shares this test system. Description: MIC by Resazurin Microtiter Assay (REMA). The format is cell-based, Xanthomonas citri subsp. citri. Particulars: Xanthomonas citri, 12 h, REMA, NYG medium, 29 °C. The method, then: The antibacterial potential of carboxylic acids and their esters were compared to copper oxychloride (a commercial active often used to combat citrus canker). Minimal inhibitory concentration (MIC) values were determined by REMA assay, which measures cellular respiratory activity.
as §1
(In general: Alamar Blue is a resazurin reagent that responds to reducing activity.)

Data set [4] concerns ACHN (human renal adenocarcinoma cell line). Briefly: Cytotoxicity MTT assay, ACHN. Type of data set: cell-based. The method, then:
(§2) This test is based on the reduction of 3-(4,5-dimethyl-2-thiazolyl)-2,5-diphenyl-2-tetrazole bromide by viable cells, with formation of violet insoluble formazan crystals. Five cell lines were used in order to evaluate the cytotoxic effect of the compounds as a whole.
(§3) The cytotoxicity of compounds 4, 16, 28 and copper oxychloride was determined by MTT assay. The cell lines used were HaCaT (human keratinocyte cell line—CLS 300493), Huh-7.5 (human hepatoma cell line—ATCC® PTA-8561), MRC-5 (human lung fibroblast cell line—ATCC CCL-171), VERO (monkey kidney epithelial cell line—ATCC® CCL81) and ACHN (human renal adenocarcinoma cell line—ATCC® CRL1611). The cells were cultured in appropriate medium recommended by the American Type Culture Collection.
(§4) The assay was performed with the concentration of 10^4 cells for both cell lines, distributed in 96-well plates and incubated at 37 °C in a 5% CO2 controlled atmosphere oven for 24 h. After the incubation period, the cells were treated with the compounds with a range of 1.56–200 μmol L^−1 and incubated for 24 h. The supernatant was removed, then 100 μL of 3-(4,5-dimethyl-2-thiazolyl)-2,5-diphenyl-2H-tetrazolium (MTT) salt at 1 mg mL^−1 diluted in DMEM medium (Gibco Life Technologies, Gaithersburg, MD, USA) was added and incubated for 30 min. Subsequently, the MTT was removed, then 100 μL of DMSO under agitation for 5 min at 60 rpm was added. The plates were read at 570 nm in a FLUOstar Omega/BMG LABTECH plate reader, Offenburg, BW, DE. We carried out the experiments in triplicate and three independent events for statistical analysis (GraphPad Software, San Diego, CA, USA). The MTT assay is based on the tetrazolium salt (yellow-colored) reduction to formazan (purple-colored) by metabolically active cells.
A general note: Formazan colour is commonly taken as a measure of viable cells.

Data set [5] has as its system MRC-5 (human lung fibroblast cell line). Briefly: Cytotoxicity MTT assay, MRC-5. The format is cell-based. The method, then:
as §2, §3, §4

Data set [6] concerns Xcc cells membrane integrity. Description: Cellular membrane permeability of Xcc, Live/Dead BacLight kit. Particulars: compounds at ¼ MIC, 15 min; nisin as positive control. The format is cell-based, Xanthomonas citri subsp. citri. The method, then: Membrane integrity was measured by using the commercial assay Live/Dead BacLight® bacterial viability kit (Invitrogen, Carlsbad, CA, USA). We observed cells with intact membrane in fluorescent blue (SYTO 9) and cells with disturbance or affected membrane integrity in red or pink (propidium iodide). The data analyses were plotted as the percentage of cells permeated by propidium iodide (Figure 2).
Phase contrast microscopy was used to observe changes in cell shape and signs of cell division alteration using an objective lens with a magnification of 100×. To evaluate the Xcc cells’ membrane integrity, the BacLight® kit was used. Mixtures of SYTO 9 dyes and propidium iodide (PI). SYTO 9 (blue) can stain nucleic acids in general—with intact or damaged membranes. On the other hand, PI (red) penetrates only the bacteria with damaged membranes, causing overlap in the fluorescence of SYTO 9. Therefore, using a mixture of the dyes, the bacteria with disturbed cell membranes are stained in fluorescent red and the intact cell membranes are stained in fluorescent blue. […] Cellular immobilization was performed on slides containing 1% agarose gel in 0.85% saline buffer. The slides were prepared with 1.0 mL of the agarose solution, which was dispersed in optical microscopy slides and on each slide another slide was placed so that the gel continued like a thin film and was of homogeneous height. The slides were dried at room temperature for approximately 20 min and opened at the time of use, when 10 μL of the cell suspension was deposited in the center and covered with the cover slip. The cells were visualized using the Olympus BX-61 optical microscope equipped with OrcaFlash 2.8 monochrome camera (Hamamatsu, Shizuoka, Japan). Cell Sensation software v11 (Olympus) was used to document and analyze the images.

Setting [7] is: Homo sapiens, ACHN, 24 h, read-out: IC50 ACHN, MTT, 24 h treatment.
Where [8] appears, read: MTT, 24 h treatment, read-out: IC50 ACHN.
Where [9] appears, read: Homo sapiens, MRC5, 24 h, read-out: IC50 MRC-5, MTT, 24 h treatment.
[10] abbreviates: MTT, 24 h treatment, read-out: IC50 MRC-5.

By chromatographic logP is commonly meant lipophilicity estimated from chromatographic retention. A high value points to higher lipophilicity. As a reminder, the MBC is the smallest concentration meeting the test's criterion for killing. Broadly, the MIC is the least concentration at which growth counts as inhibited. A word on the IC50: it is the point on the concentration scale where inhibition reaches its midpoint. `CCCCCCCOC(=O)c1ccc(O)cc1O` [Compound 4]: the chromatographic logP in data set [1] amounted to 5.1. Further, the MBC in data set [2] was determined as 25 µg/mL. In addition, in data set [3] (read-out: MIC in μM), the MIC turned out to be 52 µM. For the same molecule, the IC50 in data set [4] (setting [7]) was greater than 100 µM; in data set [4] (setting [8]), 153 ± 7.07 µM; in data set [5] (setting [9]), greater than 100 µM; in data set [5] (setting [10]), 127 ± 4.59 µM. In addition, the “percentage of cells permeated by propidium iodide” value (shortened to “percentage of cells permeated”) in data set [6] is reported as 13.9%.
In data set [1], `CCCCCCCOC(=O)c1cc(O)ccc1O` [Compound 16] displayed a chromatographic logP of 5. Besides, the MBC in data set [2] is 25 µg/mL. For the same molecule, the MIC in data set [3] (read-out: MIC in μM) was 80 µM. The IC50 in data set [4] (setting [7]) was greater than 100 µM; in data set [4] (setting [8]) it was 140 ± 7.56 µM; in data set [5] (setting [9]), greater than 100 µM; in data set [5] (setting [10]), 145 ± 6.29 µM. Moreover, the “percentage of cells permeated” value in data set [6] is on record as 41.3%.
With `CCCCCCCOC(=O)c1ccc(O)c(O)c1` [Compound 28], the chromatographic logP in data set [1] stood at 4.3. Moreover, the MBC in data set [2] was found to be 50 µg/mL. Also, the MIC in data set [3] (read-out: MIC) turned out to be 22.2 µg/mL; in data set [3] (read-out: MIC in μM), 88 µM. The IC50 is greater than 100 µM in data set [4] (setting [7]), 114 ± 9.97 µM in data set [4] (setting [8]), greater than 100 µM in data set [5] (setting [9]) and 129 ± 2.12 µM in data set [5] (setting [10]). Also, the “percentage of cells permeated” value in data set [6] is on record as 93.8%.
